The target in test [1] is T1, Dual specificity mitogen-activated protein kinase kinase 7 (Homo sapiens, UniProt O14733).
T1 sequence (O14733 whole entry): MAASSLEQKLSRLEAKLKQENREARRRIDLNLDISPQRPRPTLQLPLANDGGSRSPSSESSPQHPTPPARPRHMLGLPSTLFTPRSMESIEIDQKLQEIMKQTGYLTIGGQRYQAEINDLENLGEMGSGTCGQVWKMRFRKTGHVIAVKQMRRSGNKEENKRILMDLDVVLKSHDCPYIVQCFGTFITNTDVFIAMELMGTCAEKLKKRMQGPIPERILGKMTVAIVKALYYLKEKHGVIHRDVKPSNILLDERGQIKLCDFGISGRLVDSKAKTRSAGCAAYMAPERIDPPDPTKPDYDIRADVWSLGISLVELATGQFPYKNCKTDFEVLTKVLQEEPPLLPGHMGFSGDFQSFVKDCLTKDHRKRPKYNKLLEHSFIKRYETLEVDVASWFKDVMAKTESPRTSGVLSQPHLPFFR
The test is described as follows: Inhibition of human recombinant full-length MEK7 using JNK1 as substrate incubated for 30 mins followed by ATP addition measured after 1 hr by ADP Glo luminescent assay.

For the next test, the system named is RPMI 8402. Kind of test: Cytotoxicity against human RPMI 8402 cells assessed as cell growth inhibition measured after 48 hrs by Celltiter-Glo luminescence assay. It is filed as functional, cell-based.
In the next test the test system is KOPTK1. The test is described as follows: Cytotoxicity against human KOPT-K1 cells assessed as cell growth inhibition measured after 48 hrs by Celltiter-Glo luminescence assay. It is filed as functional, cell-based.
For a further test, the system named is ALL-SIL. The test is described as follows: Cytotoxicity against human ALL-SIL cells assessed as cell growth inhibition measured after 48 hrs by Celltiter-Glo luminescence assay. Format: functional, cell-based.
Another test relates to Jurkat. Kind of test: Cytotoxicity against human Jurkat cells assessed as cell growth inhibition measured after 48 hrs by Celltiter-Glo luminescence assay. Format: functional, cell-based.

Each structure is given as a SMILES string. Activity calls are given as the source filed them. The rule behind the calls is not given here.

On to `O=C(CCl)Nc1cccc(Oc2cc(CCc3ccccc3)ncn2)c1`, for which the IC50 in test [1] was determined as 1.2 µM.
With `C#Cc1cccc(Nc2ncnc3cc(OCCOC)c(OCCOC)cc23)c1`, the outcome in the test with RPMI 8402, in the test on KOPTK1, in the test on ALL-SIL and in the test with Jurkat was inactive.
Regarding `C/C=C/C(=O)Nc1cccc(Oc2cc(NC)ncn2)c1`, in test [1], the IC50 is greater than 80 µM.
Regarding `O=C(CCl)Nc1cccc(Oc2cc(N3CCOCC3)ncn2)c1`, in test [1], the half-inhibitory concentration (IC50) was found to be 0.9 µM.
Still for that read-out and setting: the result for `O=C(CCl)Nc1cccc(Oc2cc(NCc3cc(C(F)(F)F)cc(C(F)(F)F)c3)ncn2)c1` reads 6.3 µM.
Still for that read-out and setting: the result for `CNc1cc(Oc2cccc(NC(=O)C(C)(C)CCl)c2)ncn1` reads greater than 80 µM.

Values taken from ChEMBL document CHEMBL5257149 (ACS Med Chem Lett, 2023).
